This assay deals with T1, human β3 (Homo sapiens, UniProt P13945).
T1 construct: And then full length of human β3 gene was cloned using this fragment as a probe; expressed in transfected cells; host or cells: CHO cells (Chinese hamster ovary), pcDNA3 vector
Description: Human β3-agonist activity (cAMP in CHO cells transfected with human β3 gene). The settings on record: for Emax: CHO, read-out: Intrinsic activity (%). It is filed as cell-based. Here is the method:
Human β3-agonist Activity
Human β3-agonist activity was examined using CHO cells (chinese hamster ovarian cells) to which pcDNA3 (in vitrogen) cells inserted human β3 gene was transfected. Human β3 fragment was obtained by PCR using human fat tissue cDNA (supplied from Clontech) with a β3 primer [Krief et al, J. Clin. Invest.
The cells were cultured in a HAM F-12 medium containing 10% of fetal bovine serum, 400 μg/ml of Geneticin (Gibco BRL). 100 U/ml penicillin and 100 μg/ml streptomycin. 5×10^5 cells were placed on a 6-well plate and cultured for 24 hours, after which the medium was changed to a HAM F-12 medium without serum and was kept for 2 hours. Each test compound was first dissolved in DMSO, and then diluted with a HAM F-12 medium containing 1 mM isobutylmethyl xanthine and 1 mM ascorbic acid. A 10-fold dilution in the range of 10^−5 to 10^−12 M was added into the cell.
After culturing for 30 minutes, culture medium was withdrawn, 0.5 ml of 1 N NaOH was added and was kept for 20 minutes. And then 0.5 ml of 1 N acetic acid was added with subsequent agitation and centrifugation. Finally the concentration of cAMP were analyzed using cAMP EIA KIT (Cayman). […] Isoprotelenol was purchased from Research Biochimicals International.

The mark [1] stands for this setting: cAMP, CHO cells with human β3, read-out: ED50 (the source's name).

Counter-ions that a name gives are not always drawn. Like-named read-outs stand apart in the source and are kept apart here.

T1 sequence (P13945 whole entry, the tested form may be a part): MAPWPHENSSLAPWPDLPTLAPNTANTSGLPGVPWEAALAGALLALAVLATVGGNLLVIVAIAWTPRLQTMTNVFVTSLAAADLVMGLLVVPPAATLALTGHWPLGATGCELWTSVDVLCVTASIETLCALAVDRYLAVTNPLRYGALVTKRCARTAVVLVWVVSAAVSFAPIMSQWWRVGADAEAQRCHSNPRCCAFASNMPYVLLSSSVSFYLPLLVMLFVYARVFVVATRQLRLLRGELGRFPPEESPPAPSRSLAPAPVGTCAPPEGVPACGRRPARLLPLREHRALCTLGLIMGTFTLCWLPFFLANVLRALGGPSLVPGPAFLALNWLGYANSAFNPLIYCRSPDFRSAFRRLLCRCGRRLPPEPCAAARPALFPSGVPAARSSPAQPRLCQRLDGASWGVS

Turning to `CN(Cc1ccccc1)S(=O)(=O)Nc1cc(C(O)CNCCOc2ccc3c(c2)[nH]c2ccccc23)ccc1O` (racemic) [Example 87, (±)-N′-[5-[2-[2-(9H-Carbazol-2-yloxy)ethylamino]-1-hydroxyethyl]-2-hydroxyphenyl]-N-methyl-N-benzylsulfamide Hydrochloride], the EC50 was found to be 84 nM and the Emax worked out at 138%.
On the same counts, the results for `CCN(CC)S(=O)(=O)Nc1cc(C(O)CNCCOc2ccc3c(c2)[nH]c2ccccc23)ccc1O` (racemic) [Example 88, (±)-N′-[5-[2-[2-(9H-Carbazol-2-yloxy)ethylamino]-1-hydroxyethyl]-2-hydroxyphenyl]-N,N-diethylsulfamide Hydrochloride] are 390 nM and 86%.
On to `CN(C)S(=O)(=O)c1cc(C(O)CNCCOc2ccc3c(c2)[nH]c2ccccc23)ccc1O` (racemic) [Example 89, (±)-N,N-Dimethyl-(5-[2-[2-(9H-carbazol-2-yloxy)ethylamino]-1-hydroxyethyl]-2-hydroxy]benzenesulfonamide Hydrochloride], for which the Emax was 73%. In addition, under setting [1], the EC50 was found to be 350 nM.
As to `COC(CNCCOc1ccc2c(c1)[nH]c1ccccc12)c1ccc(O)c(NS(C)(=O)=O)c1` (racemic) [Example 90, (±)-N-[5-[2-[2-(9H-Carbazol-2-yloxy)ethylamino]-1-methoxyethyl]-2-hydroxyphenyl]methanesulfonamide Hydrochloride], the EC50 worked out at 190 nM and the Emax was 102%.
Taken in the same sequence, the figures for `CS(=O)(=O)Nc1cc([C@@H](O)CNCCOc2ccc3c(c2)[nH]c2ccccc23)ccc1O` [Example 12, (R)-N-[5-[2-[2-(9H-Carbazol-2-yloxy)ethylamino]-1-hydroxyethyl]-2-hydroxyphenyl]methanesulfonamide Hydrochloride] were 0.14 nM and 113%.
On the same counts, the results for `CS(=O)(=O)Nc1cc([C@H](O)CNCCOc2ccc3c(c2)[nH]c2ccccc23)ccc1O` [Example 13, (S)-N-[5-[2-[2-(9H-Carbazol-2-yloxy)ethylamino]-1-hydroxyethyl]-2-hydroxyphenyl]methanesulfonamide Hydrochloride] are 2.7 nM and 110%.
On the same counts, the results for `CS(=O)(=O)Nc1cccc([C@@H](O)CNCCOc2ccc3c(c2)[nH]c2ccccc23)c1` [Example 14, (R)-N-[3-[2-[2-(9H-Carbazol-2-yloxy)ethylamino]-1-hydroxyethyl]phenyl]methanesulfonamide Hydrochloride] are 2.8 nM and 97%.
As to `CS(=O)(=O)Nc1cccc([C@H](O)CNCCOc2ccc3c(c2)[nH]c2ccccc23)c1` [Example 15, (S)-N-[3-[2-[2-(9H-Carbazol-2-yloxy)ethylamino]-1-hydroxyethyl]phenyl]methanesulfonamide Hydrochloride], the EC50 came out at 110 nM and the Emax was found to be 88%.
For `C[C@H](COc1ccc2c(c1)[nH]c1ccccc12)NC[C@H](O)c1ccccc1` [Example 35, (R,R)-2-[N-[1-(9H-Carbazol-2-yloxy)propan-2-yl]amino]-1-phenylmethanol Hydrochloride], the Emax came out at 90%. For the same compound, the EC50 under setting [1] stood at 520 nM.
As for `CS(=O)(=O)Nc1cccc([C@@H](O)CNCCOc2ccc3c(c2)oc2ccccc23)c1` [Example 70, (R)-N-[3-[2-[2-(Dibenzofuran-3-yloxy)ethylamino]-1-hydroxyethyl]phenyl]methanesulfonamide Hydrochloride], the EC50 stood at 300 nM and the Emax was found to be 76%.
Taken in the same sequence, the figures for `CN(C)S(=O)(=O)Nc1cc([C@@H](O)CNCCOc2ccc3c(c2)[nH]c2ccccc23)ccc1O` [Example 73, (R)-N′-[5-[2-[2-(9H-Carbazol-2-yloxy)ethylamino]-1-hydroxyethyl]-2-hydroxyphenyl]-N,N-dimethylsulfamide Hydrochloride] were 0.038 nM and 102%.
Taken in the same sequence, the figures for `CN(C)S(=O)(=O)Nc1cc([C@H](O)CNCCOc2ccc3c(c2)[nH]c2ccccc23)ccc1O` [Example 74, (S)-N′-[5-[2-[2-(9H-Carbazol-2-yloxy)ethylamino]-1-hydroxyethyl]-2-hydroxyphenyl]-N,N-dimethylsulfamide Hydrochloride] were 0.74 nM and 114%.
On the same counts, the results for `CN(C)S(=O)(=O)Nc1cc([C@@H](O)CNCCOc2ccc3c(c2)oc2ccccc23)ccc1O` [Example 75, (R)-N′-[5-[2-[2-(Dibenzofuran-3-yloxy)ethylamino]-1-hydroxyethyl]-2-hydroxyphenyl]-N,N-dimethylsulfamide Hydrochloride] are 88 nM and 105%.
Take `CN(C)S(=O)(=O)Nc1cc([C@H](O)CNCCOc2ccc3c(c2)oc2ccccc23)ccc1O` [Example 76, (S)-N′-[5-[2-[2-(Dibenzofuran-3-yloxy)ethylamino]-1-hydroxyethyl]2-hydroxyphenyl]-N,N-dimethylsulfamide Hydrochloride]: the EC50 was found to be 520 nM and the Emax was determined as 131%.
On the same counts, the results for `CS(=O)(=O)Nc1cc([C@@H](O)CNCCOc2ccc3c(c2)[nH]c2ccccc23)ccc1F` [Example 77, (R)-N-[5-[2-[2-(9H-Carbazol-2-yloxy)ethylamino]-1-hydroxyethyl]-2-fluorophenyl]methanesulfonamide Hydrochloride] are 21 nM and 100%.
On the same counts, the results for `CS(=O)(=O)Nc1cc([C@H](O)CNCCOc2ccc3c(c2)[nH]c2ccccc23)ccc1F` [Example 78, (S)-N-[5-[2-[2-(9H-Carbazol-2-yloxy)ethylamino]-1-hydroxyethyl]-2-fluorophenyl]methanesulfonamide Hydrochloride] are 51 nM and 110%.
Taken in the same sequence, the figures for `CS(=O)(=O)Nc1cc([C@@H](O)CNCCOc2ccc3c(c2)[nH]c2ccccc23)ccc1Cl` [Example 79, (R)-N-[5-[2-[2-(9H-Carbazol-2-yloxy)ethylamino]-1-hydroxyethyl]-2-chlorophenyl]methanesulfonamide Hydrochloride] were 1.2 nM and 107%.
Regarding `CS(=O)(=O)Nc1cc([C@H](O)CNCCOc2ccc3c(c2)[nH]c2ccccc23)ccc1Cl` [Example 80, (S)-N-[5-[2-[2-(9H-Carbazol-2-yloxy)ethylamino]-1-hydroxyethyl]-2-chlorophenyl]methanesulfonamide Hydrochloride], the EC50 is 57 nM and the Emax amounted to 110%.
Consider `CNS(=O)(=O)c1cc([C@@H](O)CNCCOc2ccc3c(c2)[nH]c2ccccc23)ccc1O` [Example 81, (R)-N-methyl-[5-(2-[2-(9H-Carbazol-2-yloxy)ethylamino]-1-hydroxyethyl]-2-hydroxy]benzenesulfonamide Hydrochloride], for which the Emax turned out to be 98%. The EC50 under setting [1] came out at 6.2 nM.
